Values quoted from earlier work as cited in patent US20150376254A1, “GAMMA-MSH ANALOGUES” (TXP Pharma GmbH, priority 2014, published 2015).

Columns and labels:
[1] = tested on: normal human lung fibroblasts (NHLF); conditions: TGFβ1-induced NHLF; at higher doses; detailed in U.S. provisional application 61/785,631
MC5r = MC5r (Homo sapiens, UniProt P33032); conditions: J. Med. Chem. 2005, 48, 1839-1848
MC3r = MC3r (Homo sapiens, UniProt P41968); conditions: relative to MC4r; J. Med. Chem. 2005, 48, 1839-1848
MC3r, sequence (P41968 whole entry): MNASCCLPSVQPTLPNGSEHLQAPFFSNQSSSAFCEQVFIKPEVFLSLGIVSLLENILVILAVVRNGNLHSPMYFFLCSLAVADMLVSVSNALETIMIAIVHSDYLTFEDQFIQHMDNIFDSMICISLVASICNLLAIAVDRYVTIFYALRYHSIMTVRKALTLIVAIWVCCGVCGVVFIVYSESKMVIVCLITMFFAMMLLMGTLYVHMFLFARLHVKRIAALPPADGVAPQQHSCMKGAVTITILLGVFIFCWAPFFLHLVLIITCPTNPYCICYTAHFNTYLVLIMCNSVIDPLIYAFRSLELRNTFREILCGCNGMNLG

MC5r, sequence (P33032 whole entry): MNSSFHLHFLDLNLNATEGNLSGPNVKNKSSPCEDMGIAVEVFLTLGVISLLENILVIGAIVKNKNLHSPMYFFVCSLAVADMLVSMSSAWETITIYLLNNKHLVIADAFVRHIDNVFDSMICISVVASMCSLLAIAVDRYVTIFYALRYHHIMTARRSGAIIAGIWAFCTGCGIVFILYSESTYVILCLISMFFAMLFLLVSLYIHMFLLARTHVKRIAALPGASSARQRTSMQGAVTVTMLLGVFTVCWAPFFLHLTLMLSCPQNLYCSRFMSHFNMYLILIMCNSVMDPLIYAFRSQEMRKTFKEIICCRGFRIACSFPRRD

binding affinity against the MC5r (MC5r)	affinity to the MC3r (MC3r)	Substance	ECM collagen [1]
–	–	ACTH: adrenocorticotropic hormone, a melanocortin peptide primarily binding MC2R (SYSMEHFRWGKPVGKKRRPVKVYPNGAEDESAEAFPLEF; Corticotropin; UniProt P01189 138-176, looked up)	statistically significant reduction
weak	higher affinity	γ-MSH	–
